In US6448431B1, “Production of aryl carboxylate esters” (priority 1999, dated 2002):

Assays:
[1] = cited from earlier work
[2] = Solubility of NOBS in selected solvents; type: physicochemical; conditions: 23° C., grams of NOBS soluble in 100 grams of solution
Description: The solvent properties of TFA are unique and highly advantageous in the synthesis of phenolsulfonate esters. […] It is notable that the only solvent in which NOBS is more soluble than water is TFA. I have found no better solvent for NOBS than TFA. This is surprising. […] It is likely that hydrogen bonding in TFA facilitates the solvation of sulfonate anions but it is notable, in contrast, that such effects are much weaker in acetic acid. Furthermore, while it is known in the art that dimethyl sulfoxide (DMSO) and dimethylformamide (DMF) are relatively good solvents for benzenesulfonate esters they are much weaker solvents than TFA and because TFA has a much lower boiling point than these dipolar aprotic solvents it is the only good solvent for benzenesulfonate esters which can be readily stripped from product solutions and then purified and recycled with relative ease.

| Solubility of NOBS, wt % NOBS ([2]; solvent DMF) [wt %] | Solubility of NOBS, wt % NOBS ([2]; solvent DMSO) [wt %] | Solubility of NOBS, wt % NOBS ([2]; solvent NMP) [wt %] | Solubility of NOBS, wt % NOBS ([2]; solvent TFA) [wt %] | Solubility of NOBS, wt % NOBS ([2]; solvent acetic acid) [wt %] | Solubility of NOBS, wt % NOBS ([2]; solvent acetone) [wt %] | Solubility of NOBS, wt % NOBS ([2]; solvent acetonitrile) [wt %] | Solubility of NOBS, wt % NOBS ([2]; solvent nonanoic acid) [wt %] | Solubility of NOBS, wt % NOBS ([2]; solvent water) [wt %] | Structure (SMILES) | Aqueous pKa [1] |
| --- | --- | --- | --- | --- | --- | --- | --- | --- | --- | --- |
|  |  |  |  |  |  |  |  |  | O=C(O)C(F)(F)F [CF3CO2H, trifluoroacetic acid] | 0.22 |
| 10.1 | 15.9 | 8.4 | 23.4 | 1.7 | 0.02 | 0.01 | 0.03 | 22.8 | CCCCCCCCC(=O)Oc1ccc(S(=O)(=O)[O-])cc1.[Na+] [NOBS, sodium 4-(nonanoyloxy)benzenesulfonate] |  |
